Measured values taken from patent publication US20240091200A1 (Lilac Therapeutics, Inc., priority 2019, published 2024).

Biological target: Glycolate oxidase (GO) (Homo sapiens (Human), UniProt Q9UJM8)
Test: GO biochemical assay (Amplex Red, 384-well)
Protocol: Amplex® Red Hydrogen Peroxide/Peroxidase Assay Kit (Catalog no. A22188) was purchased from Thermo Fisher (Waltham, MA).
The reaction was mixed and incubated at room temperature for 20 min followed by reading the plates by EnVision plate reader (Perkin Elmer, San Jose, CA) with excitation at 570 nm and emission 585 nm. […] The % inhibition as calculated as 100%×(Well-Negative)/(Positive-Negative)

Chain of Glycolate oxidase (GO) (Q9UJM8 whole entry): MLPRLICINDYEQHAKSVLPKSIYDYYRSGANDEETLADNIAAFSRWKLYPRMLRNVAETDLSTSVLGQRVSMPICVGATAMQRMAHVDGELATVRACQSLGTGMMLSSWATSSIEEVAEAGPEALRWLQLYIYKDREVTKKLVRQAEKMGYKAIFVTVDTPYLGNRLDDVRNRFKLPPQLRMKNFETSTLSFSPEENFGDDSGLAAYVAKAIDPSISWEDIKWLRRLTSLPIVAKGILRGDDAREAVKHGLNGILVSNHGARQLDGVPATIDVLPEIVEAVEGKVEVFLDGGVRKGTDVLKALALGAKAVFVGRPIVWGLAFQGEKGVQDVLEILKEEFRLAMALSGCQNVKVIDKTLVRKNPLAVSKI

Row | IC50 [nM] | Compound
1 | 33.6 | O=C(O)c1[nH]nnc1-c1ccc(-c2ccc(Cl)c(S(=O)(=O)N3CCOCC3)c2)cc1 [Example 146]
2 | 93.2 | O=C(O)c1[nH]nnc1-c1ccc(-c2ccc(-c3ccncc3)cc2)cc1 [Example 103]
3 | 22.7 | Cc1cnc(-c2ccc(-c3ccc(-c4nn[nH]c4C(=O)O)cc3)cc2)s1 [Example 109]
4 | 24 | O=C(O)c1[nH]nnc1-c1ccc(-c2ccc(-c3c[nH]cn3)cc2)cc1 [Example 129]
5 | 136 | O=C(O)c1[nH]nnc1-c1ccc(-c2ccc(N3CCCC3=O)cc2)cc1 [Example 83]
6 | 563 | O=C(O)c1[nH]nnc1-c1ccc(-c2ccc(OC(F)(F)F)cc2)cc1 [Example 55]
7 | 244 | O=C(O)c1[nH]nnc1-c1ccc(-c2ccc(S(=O)(=O)N3CCCCC3)cc2)cc1 [Example 79]
8 | 64.5 | Cc1cc(-c2ccc(-c3nn[nH]c3C(=O)O)cc2)ccc1Cl [Example 91]
9 | 94.6 | NS(=O)(=O)c1ccc(-c2ccc(-c3nn[nH]c3C(=O)O)cc2)cc1 [Example 77]
10 | 4300 | CC(C)(C)c1ccc(-c2ccc(-c3nn[nH]c3C(=O)O)cc2)cc1 [Example 54]
11 | ≥ 10000 | Cc1ccccc1-c1nn[nH]c1C(=O)O [Example 3, 4-(o-tolyl)-1H-1,2,3-triazole-5-carboxylic acid]
12 | > 10000 | O=C(O)c1c[nH]nc1-c1cc(Cl)cc(Cl)c1 [Example 183, 3-(3,5-dichlorophenyl)-1H-pyrazole-4-carboxylic acid]
13 | 4.67 | Cc1[nH]nnc1-c1ccc(-c2ccc(-c3nn[nH]c3C(=O)O)cc2)cc1 [Example 131]
14 | ≥ 10000 | O=C(O)c1[nH]nnc1-c1ccccn1 [Example 139, 4-(pyridin-2-yl)-1H-1,2,3-triazole-5-carboxylic acid]
15 | ≥ 10000 | O=C(O)c1n[nH]cc1-c1cccnc1 [Example 35, 4-(pyridin-3-yl)-1H-pyrazole-3-carboxylic acid]
16 | 119 | CC1(C)c2cc(-c3ccc(-c4nn[nH]c4C(=O)O)cc3)ccc2C(=O)N1CC(F)(F)F [Example 153, 4-(4-(3,3-dimethyl-1-oxo-2-(2,2,2-trifluoroethyl)isoindolin-5-yl)phenyl)-1H-1,2,3-triazole-5-carboxylic acid]
17 | 1310 | O=C(O)c1[nH]nnc1-c1cccc(F)c1 [Example 8, 4-(3-fluorophenyl)-1H-1,2,3-triazole-5-carboxylic acid]
18 | 196 | O=C(O)c1[nH]nnc1-c1ccc(Cl)c(Cl)c1 [Example 19, 4-(3,4-dichlorophenyl)-1H-1,2,3-triazole-5-carboxylic acid]
19 | 330 | O=C(O)c1[nH]nnc1-c1ccc2c(c1)OC(F)(F)O2 [Example 29, 4-(2,2-difluorobenzo[d][1,3]dioxol-5-yl)-1H-1,2,3-triazole-5-carboxylic acid]
20 | 377 | Cc1ccc(-c2ccc(-c3nn[nH]c3C(=O)O)cc2)cc1 [Example 53]
21 | ≥ 10000 | Cn1nnc(-c2ccc(F)c(Cl)c2)c1C(=O)O [Example 150, 4-(3-chloro-4-fluorophenyl)-1-methyl-11H-1,2,3-triazole-5-carboxylic acid]
22 | 77.6 | O=C(O)c1[nH]nnc1-c1ccc2c(c1)[nH]c1ccccc12 [Example 88, 4-(9H-carbazol-2-yl)-1H-1,2,3-triazole-5-carboxylic acid]
23 | 1000 | CC(=O)N1CCC(c2ccc(-c3nn[nH]c3C(=O)O)cc2)CC1 [Example 163, 4-(4-(1-acetylpiperidin-4-yl)phenyl)-1H-1,2,3-triazole-5-carboxylic acid]
24 | ≥ 10000 | O=C(O)c1[nH]nnc1-c1cscn1 [Example 141, 4-(thiazol-4-yl)-1H-1,2,3-triazole-5-carboxylic acid]

Row | IC50 [nM] | Compound
25 | 408 | O=C(O)c1[nH]nnc1-c1ccc(-c2cccc(-c3ccccc3)c2)cc1 [Example 99, 4-([1,131terphenyl]-4-yl)-1H-1,2,3-triazole-5-carboxylic acid]
26 | 16.1 | O=C(O)c1[nH]nnc1-c1ccc(-c2ccc(-c3cn[nH]c3)cc2)cc1 [Example 124]
27 | 18.6 | O=C(O)c1[nH]nnc1-c1ccc(-c2cccc(S(=O)(=O)N3CCOCC3)c2)cc1 [Example 75]
28 | 88.2 | CC(=O)N1CC=C(c2ccc(-c3nn[nH]c3C(=O)O)cc2)CC1 [Example 162, 4-(4-(1-acetyl-1,2,3,6-tetrahydropyridin-4-yl)phenyl)-1H-1,2,3-triazole-5-carboxylic acid]
29 | > 10000 | O=C(O)c1[nH]cnc1-c1ccc(F)c(Cl)c1 [Example 184, 4-(3-chloro-4-fluorophenyl)-1H-imidazole-5-carboxylic acid]
30 | 23.8 | O=C(O)c1[nH]nnc1-c1ccc2c(c1)oc1ccccc12 [Example 87, 4-(dibenzo[b,d]furan-3-yl)-1H-1,2,3-triazole-5-carboxylic acid]
31 | 159 | O=C(O)c1[nH]nnc1-c1cccc(Cl)c1F [Example 22, 4-(3-chloro-2-fluorophenyl)-1H-1,2,3-triazole-5-carboxylic acid]
32 | > 10000 | O=C(O)c1[nH]cnc1-c1cc(Cl)cc(Cl)c1 [Example 185, 4-(3,5-dichlorophenyl)-1H-imidazole-5-carboxylic acid]
33 | ≥ 10000 | Cc1ccc(-c2nn[nH]c2C(=O)O)cc1 [Example 5, 4-(p-tolyl)-1H-1,2,3-triazole-5-carboxylic acid]
34 | > 10000 | O=C(O)c1c[nH]nc1-c1ccc(F)c(Cl)c1 [Example 182, 3-(3-chloro-4-fluorophenyl)-1H-pyrazole-4-carboxylic acid]
35 | 37.5 | O=C(O)c1[nH]nnc1-c1ccc(-c2ccc(-c3ncco3)cc2)cc1 [Example 112]
36 | 130 | N#Cc1cccc(-c2nn[nH]c2C(=O)O)c1 [Example 12]
37 | 1000 | CN(C)C(=O)c1cccc(-c2ccc(-c3nn[nH]c3C(=O)O)cc2)c1 [Example 143]
38 | 1000 | CCOC(=O)c1[nH]nnc1-c1ccc(-c2ccc(Cl)cc2)cc1 [Example 1]
39 | 4.14 | O=C(O)c1[nH]nnc1-c1ccc(-c2ccc(-c3cnn[nH]3)cc2)cc1 [Example 127]
40 | 1000 | COc1cc2ccc(-c3nn[nH]c3C(=O)O)cc2cn1 [Example 40, 4-(3-methoxyisoquinolin-7-yl)-1H-1,2,3-triazole-5-carboxylic acid]
41 | 16.5 | O=C(O)c1[nH]ncc1-c1ccc2c(c1)C(F)(F)c1cc(-c3c[nH]nn3)ccc1-2 [Example 170, 4-(9,9-difluoro-7-(1H-1,2,3-triazol-4-yl)-9H-fluoren-2-yl)-1H-pyrazole-5-carboxylic acid]
42 | ≥ 10000 | Cn1nnc(C(=O)O)c1-c1ccc(F)c(Cl)c1 [Example 17, 5-(3-chloro-4-fluorophenyl)-1-methyl-1H-1,2,3-triazole-4-carboxylic acid]
43 | 226 | O=C(O)c1[nH]nnc1C#Cc1ccc(Cl)cc1 [Example 160, 4-((4-chlorophenyl)ethynyl)-1H-1,2,3-triazole-5-carboxylic acid]
44 | ≥ 10000 | O=C(O)c1[nH]ncc1-c1ccccn1 [Example 140, 4-(pyridin-2-yl)-1H-pyrazole-5-carboxylic acid]
45 | 19.7 | Cc1cc(-c2ccc(-c3ccc(-c4nn[nH]c4C(=O)O)cc3)cc2)nn1C [Example 117]
46 | 10.7 | O=C(O)c1[nH]nnc1-c1ccc(-c2ccc(-c3nc4ccccc4s3)cc2)cc1 [Example 122]
47 | 1000 | O=C(O)c1[nH]nnc1-c1ccc(-c2ccc(N3CCOCC3)cc2)cc1 [Example 84]
